Data published in ChEMBL document CHEMBL1137953, “A novel approach to the synthesis of cytotoxic C2-C3 unsaturated pyrrolo[2,1-c]benzodiazepines (PBDs) with conjugated acrylyl C2-substituents” (2004).

What was measured:
Format in all cases: functional
[1] = Compound was evaluated for total growth inhibition of 60 cell lines in NCI screen
[2] = Compound was evaluated for growth inhibition of 60 cell lines in NCI screen
[3] = Lethal concentration of compound was evaluated against 60 cell lines in NCI screen
CCRF-CEM = assay: Compound was evaluated for growth inhibition of leukemia CCRF-CEM cell line in NCI 60-cell line screen; conditions: Homo sapiens
HCT-116 = assay: Compound was evaluated for growth inhibition of colon HCT116 cell line in NCI 60-cell line screen; conditions: Homo sapiens
HOP-92 = assay: Compound was evaluated for growth inhibition of non-small cell lung HOP-92 cell line in NCI 60-cell line screen; conditions: Homo sapiens
MCF7 = assay: Compound was evaluated for growth inhibition of breast MCF-7 cell line in NCI 60-cell line screen; conditions: Homo sapiens
OVCAR-5 = assay: Compound was evaluated for growth inhibition of ovarian OVCAR-5 cell line in NCI 60-cell line screen; conditions: Homo sapiens
PC-3 = assay: Compound was evaluated for growth inhibition of prostate PC-3 cell line in NCI 60-cell line screen; conditions: Homo sapiens
RXF 393 = assay: Compound was evaluated for growth inhibition of renal RXF-393 cell line in NCI 60-cell line screen; conditions: Homo sapiens
U-251 = assay: Compound was evaluated for growth inhibition of central nervous system U251 cell line in NCI 60-cell line screen; conditions: Homo sapiens
UACC-257 = assay: Compound was evaluated for growth inhibition of melanoma UACC-257 cell line in NCI 60-cell line screen; conditions: Homo sapiens

| Structure (SMILES) | TGI [1] | GI50 [2] | LC50 (50% lethal concentration) [3] | GI50 (CCRF-CEM) | GI50 (HCT-116) | GI50 (HOP-92) | GI50 (MCF7) | GI50 (OVCAR-5) | GI50 (PC-3) | GI50 (RXF 393) | GI50 (U-251) | GI50 (UACC-257) |
| --- | --- | --- | --- | --- | --- | --- | --- | --- | --- | --- | --- | --- |
| COc1cc2c(cc1OC)C(=O)N1C=C(/C=C/C(N)=O)C[C@H]1C=N2 | 3720 nM | 53 nM | 69200 nM | – | – | – | – | – | – | – | – | – |
| Cc1ccc2c(c1O)NC(O)C1CC(/C=C/C(N)=O)=CN1C2=O (stereo not given) [ANTHRAMYCIN] | 610 nM | 29 nM | 12700 nM | 20 nM | 39.8 nM | 20 nM | 39.8 nM | 50.1 nM | 20 nM | 31.6 nM | 20 nM | 63.1 nM |
| COc1cc2c(cc1OC)C(=O)N1C=C(/C=C/C(=O)N(C)C)C[C@H]1C=N2 | 96 nM | 12 nM | 650 nM | 0.6 nM | 11.7 nM | 2.34 nM | 7.15 nM | 3.21 nM | 18.6 nM | 1.65 nM | 3.33 nM | 0.25 nM |
| COC(=O)/C=C/C1=CN2C(=O)c3cc(OC)c(OC)cc3N=C[C@@H]2C1 | 1320 nM | 13 nM | 55000 nM | – | – | – | – | – | – | – | – | – |
